Source: patent publication US20250134874A1, “PHARMACEUTICAL FORMULATIONS COMPRISING 3-({[(4R)-7-{METHYL[4-(PROPAN-2-YL)PHENYL]AMINO}-3,4-DIHYDRO-2H-1-BENZOPYRAN-4-YL]METHYL}AMINO)PYRIDINE-4-CARBOXYLIC ACID” (TACHYON THERAPEUTICS, INC., priority 2021, published 2025)

Tested on: 301 cancer cell lines from different tumor types (OncoPanel; HD Biosciences)
Assay: 2D cell viability inhibition assay (CellTiter-Glo) in cancer cell line panel
Type: cell-based
Conditions: Homo sapiens
Procedure: In a larger screening study, compound 1 was evaluated across a broad cancer cell line panel (OncoPanel; HD Biosciences) composed of 301 cancer cell lines from different tumor types.
2D cell viability inhibition assays were performed in multiwell plates seeded with cells from the panel. After seeding, the plates were cultured overnight in a humidified incubator at 37° C. to promote adherence. Assays were initiated in individual wells by adding either DMSO as a vehicle control, growth media as a blank, or serially diluted compound 1 (10 μM to 0.0005 μM with 1:3 serial dilution). Cultures were incubated for 168 hours after which the number of viable cells in each test well was assessed using the CellTiter-Glo® Luminescent Cell Viability Assay. Luminescence readouts were performed using an EnVision® Multilabel Reader and the compound 1 readouts were normalized to the DMSO control readouts, expressed as a percent of the control. Outliers were flagged out by visual inspection. Percent of control was plotted against the corresponding compound 1 concentration and the absolute IC50 value was determined using four-parameter logistic non-linear regression as the concentration where inhibition was 50% of the control. For maximum inhibition <50%, the absolute IC50 was reported as >10. In addition to EC50 and IC50, AUC was determined and was normalized to the area corresponding to theoretical no-inhibition (the rectangular area defined by the compound dose range and 0 to 100 in y). Emax was recorded as the minimum in y with the compound dose range. For those cell lines where Emax>40, EC50 was manually set to 10 μM. A hierarchical clustering algorithm based on Euclidean distance between the standardized input values and “Ward.D” method as implemented in R hclust function was used to visualize the compound 1 cellular potency data. The sensitive/moderate/resistant calls for each cell line was determined by visually inspecting the resulting clustering dendrogram. All the analyses were done in R Core Team.

## CC(C)c1ccc(N(C)c2ccc3c(c2)OCC[C@H]3CNc2cnccc2C(=O)O)cc1 [Compound 1, 3-({[(4R)-7-{methyl[4-(propan-2-yl)phenyl]amino}-3,4-dihydro-2H-1-benzopyran-4-yl]methyl}amino)pyridine-4-carboxylic acid]
KYSE-30, KYSE30 cell line
  EC50: ≥ 10000 nM
  IC50: 2.43 nM
KYSE-70, 168 h, KYSE70, oesophagus, squamous cell carcinoma, 168 hours
  IC50: > 10000 nM
KYSE-150, KYSE150 cell line
  EC50: 4.41 nM
  IC50: 5.1 nM
KYSE-270, KYSE270 cell line
  EC50: 5.11 nM
  IC50: 5.35 nM
KYSE-410, KYSE410 cell line
  EC50: 5.47 nM
  IC50: 8.25 nM
KYSE-510, KYSE510 cell line
  EC50: 3.42 nM
  IC50: 3.4 nM
Kasumi 1, 168 h, KASUMI1, haematopoietic and lymphoid tissue, acute myeloid leukaemia, 168 hours
  IC50: > 10000 nM
LNCaP, LNCAP cell line
  EC50: 3.54 nM
  IC50: 4.65 nM
LS-411N, LS411N cell line
  EC50: 16.8 nM
  IC50: 16.7 nM
LoVo, LOVO cell line
  IC50: 57.8 nM
Lu-65, LU65 cell line
  EC50: 7.19 nM
  IC50: 10.6 nM
Lu-99, 168 h, LU99, lung, large cell carcinoma, 168 hours
  IC50: > 10000 nM
MC116, MC116 cell line
  EC50: 5.21 nM
  IC50: 4.6 nM
MCF7, MCF7 cell line
  IC50: 435 nM
MDA-MB-157, 168 h, MDAMB157, breast, ductal carcinoma, 168 hours
  IC50: > 10000 nM
MDA-MB-175-VII, 168 h, MDAMB175VII, breast, ductal carcinoma
  IC50: > 10000 nM
MDA-MB-231, 168 h, MDAMB231, breast, NS, 168 hours
  IC50: > 10000 nM
MDA-MB-361, 168 h, MDAMB361, breast, NS, 168 hours
  IC50: > 10000 nM
MDA-MB-415, 168 h, MDAMB415, breast, NS, 168 hours
  IC50: > 10000 nM
MDA-MB-436, 168 h, MDAMB436, breast, NS, 168 hours
  IC50: > 10000 nM
MDA-MB-453, MDAMB453 cell line
  EC50: 8.03 nM
  IC50: 10.4 nM
MDA-MB-468, 168 h, MDAMB468, breast, NS, 168 hours
  IC50: > 10000 nM
MES-SA, MESSA cell line
  EC50: 9 nM
  IC50: 14.3 nM
MIA PaCa-2, MIAPACA2 cell line
  EC50: 5.28 nM
  IC50: 7.02 nM
MKN-1, MKN1 cell line
  EC50: 4.33 nM
  IC50: 5.75 nM
MKN-45, MKN45 cell line
  EC50: 11 nM
  IC50: 13.5 nM
MOLT-4, MOLT4 cell line
  EC50: 0.508 nM
  IC50: 1.25 nM
MV4-11, MV411 cell line
  EC50: 3.92 nM
  IC50: 4.02 nM
Malme-3M, 168 h, MALME3M, skin, NS
  IC50: > 10000 nM
MeWo, 168 h, skin, NS
  IC50: > 10000 nM
NCI-H23, NCIH23 cell line
  EC50: 37.7 nM
  IC50: 42.7 nM
NCI-H69, NCIH69 cell line
  EC50: 7.14 nM
  IC50: 7.09 nM
NCI-H82, NCIH82 cell line
  EC50: 3.31 nM
  IC50: 3.54 nM
NCI-H209, NCIH209 cell line
  EC50: 1.48 nM
  IC50: 1.31 nM
NCI-H358, NCIH358 cell line
  EC50: 3.05 nM
  IC50: 6.57 nM
NCI-H441, 168 h, NCIH441, lung, adenocarcinoma, 168 hours
  IC50: > 10000 nM
NCI-H446, NCIH446 cell line
  EC50: 14.5 nM
  IC50: 119 nM
NCI-H460, NCIH460 cell line
  EC50: 11.1 nM
  IC50: 11.6 nM
NCI-H508, NCIH508 cell line
  EC50: 9.16 nM
  IC50: 10.2 nM
NCI-H520, NCIH520 cell line
  EC50: 5.06 nM
  IC50: 5.9 nM
NCI-H522, NCIH522 cell line
  EC50: 11.5 nM
  IC50: 17.4 nM
NCI-H524, NCIH524 cell line
  EC50: 4.98 nM
  IC50: 6.85 nM
NCI-H596, 168 h, NCIH596, lung, mixed adenosquamous carcinoma, 168 hours
  IC50: > 10000 nM
NCI-H647, NCIH647 cell line
  EC50: 6.04 nM
  IC50: 9.84 nM
NCI-H661, NCIH661 cell line
  EC50: 9.06 nM
  IC50: 9.73 nM
NCI-H716, NCIH716 cell line
  EC50: 5.77 nM
  IC50: 9.51 nM
NCI-H929, NCIH929 cell line
  EC50: 20.6 nM
  IC50: 34.5 nM
NCI-H1048, NCIH1048 cell line
  EC50: 0.508 nM
  IC50: 0.706 nM
NCI-H1092, NCIH1092 cell line
  EC50: 3.93 nM
  IC50: 7.16 nM
NCI-H1155, NCIH1155 cell line
  EC50: 0.884 nM
  IC50: 0.765 nM
NCI-H1299, NCIH1299 cell line
  EC50: 5.38 nM
  IC50: 7.5 nM
NCI-H1355, NCIH1355 cell line
  EC50: ≥ 10000 nM
  IC50: 20.6 nM
NCI-H1395, 168 h, NCIH1395, lung, adenocarcinoma, 168 hours
  IC50: > 10000 nM
NCI-H1436, NCIH1436 cell line
  EC50: ≥ 10000 nM
  IC50: 8.75 nM
NCI-H1437, NCIH1437 cell line
  EC50: 9.48 nM
  IC50: 13.1 nM
NCI-H1563, 168 h, NCIH1563, lung, adenocarcinoma, 168 hours
  IC50: > 10000 nM
NCI-H1573, 168 h, NCIH1573, lung, adenocarcinoma, 168 hours
  IC50: > 10000 nM
NCI-H1623, NCIH1623 cell line
  EC50: 8.13 nM
  IC50: 18.9 nM
NCI-H1650, 168 h, NCIH1650, lung, bronchioloalveolar adenocarcinoma, 168 hours
  IC50: > 10000 nM
NCI-H1666, NCIH1666 cell line
  EC50: 0.508 nM
  IC50: 1.17 nM
NCI-H1694, NCIH1694 cell line
  EC50: 0.508 nM
  IC50: 1.75 nM
NCI-H1703, NCIH1703 cell line
  EC50: 4.88 nM
  IC50: 8.05 nM
NCI-H1734, NCIH1734 cell line
  IC50: > 10000 nM
NCI-H1755, 168 h, NCIH1755, lung, adenocarcinoma, 168 hours
  IC50: > 10000 nM
NCI-H1793, NCIH1793 cell line
  EC50: 8.36 nM
  IC50: 15.3 nM
NCI-H1836, NCIH1836 cell line
  EC50: 4.88 nM
  IC50: 6.07 nM
NCI-H1838, 168 h, NCIH1838, lung, non-small cell carcinoma, 168 hours
  IC50: > 10000 nM
NCI-H1930, NCIH1930 cell line
  EC50: 6.62 nM
  IC50: 20 nM
